How the values were obtained:
Experiment in all cases: relative viability (nuclei count vs DMSO), 5 days (fraction); higher = more cells survive
BI-2536 + Linsitinib = compound: CC[C@@H]1C(=O)N(C)c2cnc(Nc3ccc(C(=O)NC4CCN(C)CC4)cc3OC)nc2N1C1CCCC1 [BI-2536] + C[C@]1(O)C[C@@H](c2nc(-c3ccc4ccc(-c5ccccc5)nc4c3)c3c(N)nccn32)C1 [Linsitinib] (partner 1 µM)
Outline: (§1)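 Nuclei were stained with Hoechst during a one-step fixation (final 0.05% Triton X-100, 1% formaldehyde, 1 ug/ml Hoechst) carried out 5 days after dosing, then counted on 4× images. The cells, lung cancer lines in 1536-well plates, had been dosed by pin tool the day after seeding with one drug alone or a fixed anchor-drug dose plus five library-drug doses (not always all listed) in √10 steps. Relative viability is the nuclei count in treated wells divided by that in vehicle wells, and each value is the median of duplicate plates.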

BI-2536 + Crizotinib = compound: CC[C@@H]1C(=O)N(C)c2cnc(Nc3ccc(C(=O)NC4CCN(C)CC4)cc3OC)nc2N1C1CCCC1 [BI-2536] + C[C@@H](Oc1cc(-c2cnn(C3CCNCC3)c2)cnc1N)c1c(Cl)ccc(F)c1Cl [Crizotinib] (partner 1 µM)
Outline: as §1

[1] = compound: CC1CC(=O)N(C2=CN=C(N=C2N1C3CCCC3)NC4=C(C=C(C=C4)C(=O)NC5CCN(CC5)C)OC)C [NPK76-II-72-1] + CC1(C)CCC(c2ccc(Cl)cc2)=C(CN2CCN(c3ccc(C(=O)NS(=O)(=O)c4ccc(N[C@H](CCN5CCOCC5)CSc5ccccc5)c(S(=O)(=O)C(F)(F)F)c4)cc3)CC2)C1 [Navitoclax] (partner 0.5 µM)
Outline: as §1

[2] = compound: CC1CC(=O)N(C2=CN=C(N=C2N1C3CCCC3)NC4=C(C=C(C=C4)C(=O)NC5CCN(CC5)C)OC)C [NPK76-II-72-1] + CC(=O)c1c(C)c2cnc(Nc3ccc(N4CCNCC4)cn3)nc2n(C2CCCC2)c1=O [Palbociclib] (partner 0.5 µM)
Outline: as §1

Cell Line | relative viability (BI-2536 + Linsitinib; first compound 0.01 µM) | relative viability (BI-2536 + Linsitinib; first compound 0.03162 µM) | relative viability (BI-2536 + Linsitinib; first compound 0.1 µM) | relative viability (BI-2536 + Linsitinib; first compound 0.3162 µM) | relative viability (BI-2536 + Linsitinib; first compound 1 µM) | relative viability (BI-2536 + Crizotinib; first compound 0.01 µM) | relative viability (BI-2536 + Crizotinib; first compound 0.03162 µM) | relative viability (BI-2536 + Crizotinib; first compound 0.1 µM) | relative viability (BI-2536 + Crizotinib; first compound 0.3162 µM) | relative viability (BI-2536 + Crizotinib; first compound 1 µM) | relative viability ([1]; first compound 0.01 µM) | relative viability ([1]; first compound 0.03162 µM) | relative viability ([1]; first compound 0.1 µM) | relative viability ([1]; first compound 0.3162 µM) | relative viability ([1]; first compound 1 µM) | relative viability ([2]; first compound 0.01 µM) | relative viability ([2]; first compound 0.03162 µM) | relative viability ([2]; first compound 0.1 µM) | relative viability ([2]; first compound 0.3162 µM) | relative viability ([2]; first compound 1 µM)
H3255 | 0.906 | 1.03 | 0.903 | 0.227 | 0.226 | 0.909 | 0.763 | 0.515 | 0.196 | 0.24 | 0.556 | 0.494 | 0.52 | 0.173 | 0.639 | 0.351 | 0.319 | 0.305 | 0.3 | 0.304
HARA | 0.984 | 1.2 | 0.969 | 0.0681 | 0.0677 | 1.03 | 1.07 | 0.636 | 0.139 | 0.196 | 1.12 | 1.14 | 1.13 | 1.08 | 1.15 | 0.27 | 0.267 | 0.254 | 0.21 | 0.295
HCC-15 | 0.921 | 0.965 | 0.815 | 0.28 | 0.143 | 0.82 | 0.64 | 0.426 | 0.134 | 0.118 | 0.692 | 0.739 | 0.662 | 0.686 | 0.804 | 0.722 | 0.849 | 0.705 | 0.694 | 0.745
IA-LM | 0.641 | 0.55 | 0.774 | 0.104 | 0.164 | 0.771 | 0.667 | 0.125 | 0.108 | 0.058 | 0.752 | 1.17 | 0.67 | 0.733 | 1 |  |  |  |  | 
LCLC-103H | 1.16 | 1.04 | 1.05 | 0.942 | 0.143 | 1.11 | 0.986 | 1.08 | 0.39 | 0.154 |  |  |  |  |  |  | 0.501 | 0.501 | 0.565 | 0.484
NCI-H358 | 0.723 | 0.676 | 0.402 | 0.161 | 0.137 | 0.446 | 0.259 | 0.22 | 0.173 | 0.139 |  |  |  |  |  | 0.131 | 0.186 | 0.165 |  | 0.126
NCI-H522 |  |  |  |  |  |  |  |  |  |  |  |  |  |  |  | 0.866 | 1.02 | 0.981 |  | 1.1
NCI-H596 | 1.09 | 1.1 | 1.11 | 0.363 | 0.39 | 0.948 | 1.05 | 0.938 | 0.493 | 0.443 | 0.862 | 1.01 | 0.828 | 0.965 | 1.04 |  |  |  |  | 
NCI-H650 | 0.964 | 0.881 | 0.534 | 0.165 | 0.17 | 0.597 | 0.347 | 0.271 | 0.21 | 0.17 |  |  |  |  |  | 0.332 | 0.366 | 0.3 | 0.303 | 0.356
NCI-H661 | 0.458 | 0.567 | 0.709 | 0.232 | 0.2 | 0.97 | 0.928 | 0.854 | 0.381 | 0.262 |  |  |  |  |  | 0.424 | 0.37 | 0.418 | 0.346 | 0.435
NCI-H1299 | 1 | 0.971 | 0.974 | 0.245 | 0.363 | 0.946 | 0.808 | 0.663 | 0.266 | 0.224 | 1.04 | 1.05 | 1.01 | 1.03 | 1.04 |  |  |  |  | 
NCI-H1395 | 0.928 | 0.785 | 0.633 | 0.544 | 0.474 |  |  |  |  |  | 0.994 | 1.14 | 1.24 | 1.46 | 1.25 | 0.627 | 0.621 | 0.621 | 0.661 | 0.616
NCI-H1563 | 1.17 | 1.19 | 1.22 | 0.73 | 0.766 | 0.902 | 0.817 | 0.822 | 0.621 | 0.561 |  |  |  |  |  |  |  |  |  | 
NCI-H1648 |  |  |  |  |  |  |  |  |  |  |  |  |  |  |  | 0.23 | 0.269 | 0.24 | 0.266 | 0.279
NCI-H1650 |  |  |  |  |  | 0.948 | 0.742 | 0.208 | 0.143 | 0.11 | 1.08 | 1.12 | 1.23 | 1.12 | 1.07 | 0.314 | 0.428 | 0.458 | 0.31 | 0.407
NCI-H1703 | 0.77 | 0.296 | 0.574 | 0.117 | 0.0956 | 0.626 |  | 0.173 | 0.131 | 0.0732 | 0.961 | 1.59 | 1.27 | 1.19 | 1.38 |  |  |  |  | 
NCI-H1793 | 0.939 | 0.85 | 1.03 | 0.211 | 0.205 |  |  |  |  |  | 0.399 | 0.642 | 0.477 | 0.302 | 0.41 |  | 0.324 | 0.352 | 0.256 | 0.366
NCI-H2170 |  |  |  |  |  | 1.09 | 1.13 | 0.611 | 0.244 | 0.288 | 0.615 | 0.558 | 0.565 |  | 0.643 | 0.395 | 0.358 | 0.435 | 0.285 | 0.415
NCI-H2342 |  |  |  |  |  |  |  |  |  |  |  |  |  |  |  | 0.487 | 0.468 | 0.47 | 0.508 | 0.541
SW 900 |  |  |  |  |  |  |  |  |  |  |  |  |  |  |  | 0.53 | 0.632 | 0.464 | 0.441 | 0.584
